Consider eight molecules from patent US8269024B2, “Compounds and methods for modulating communication and virulence in quorum sensing bacteria” (priority 2005, dated 2012).

Each structure is given as a SMILES string. Read-outs that look alike come from different tables or passages of the source. Marks after values point to notes of the source that are not given here.

Assay [1] deals with T1, TraR (Agrobacterium tumefaciens, UniProt P33905).
T1 construct: Both of these reporter strains lack their native AHL synthases, yet retain active LuxR-type receptors (LasR and TraR proteins, respectively); endogenous in cells; host or cells: A. tumefaciens WCF47(pCF372)
Kind of assay: Agrobacterium tumefaciens reporter gene assay, WCF47(pCF372), β-galactosidase (Miller) readout. Type of assay: cell-based. The following applies: for A. tumefaciens β-galactosidase activity [Miller units] 10^4 nM: antagonism, compound at 10^4 nM screened against 100 nM 8b, strain WCF47(pCF372); for activity against TraR in A. tumefaciens: antagonism screen in presence of native ligand 8b; for activity relative to previously reported antagonists 7g, 8f and 9: controls at 10 μM. An excerpt:
(§1) The AHL library constructed by the schema described above, was screened in two bacterial reporter strains for antagonism of quorum sensing: 1) P. aeruginosa PAO-JP2(plasI-LVAgfp), (De Kievit, T. R.; Gillis, R.; Marx, S.; Brown, C.; Iglewski, B. H. Appl. Environ. Microbiol. 2001, 67, 1865-1873) and 2) A. tumefaciens WCF47 (pCF372). Examination of these two strains was valuable for two reasons: 1) the direct clinical relevance of P. aeruginosa, and 2), the extensive body of biochemical and structural data for TraR in A. tumefaciens. Both of these reporter strains lack their native AHL synthases, yet retain active LuxR-type receptors (LasR and TraR proteins, respectively); exogenous ligand is required for receptor activation, which can be measured by fluorescence (green fluorescent protein (GFP) for LasR) or absorbance (via β-galactosidase activity for TraR) measurements.
An appropriate amount of concentrated AHL stock solution, to give a final concentration of 100 nM, was added to an empty culture tube, and the solvent was allowed to evaporate. An overnight culture of A. tumefaciens WCF47(pCF372) was diluted to an OD600 (optical density) of 0.1 in fresh AB minimal medium containing 400 μg/mL octopine and 50 μg/mL streptomycin. A 1 mL portion of the diluted culture was added to the tubes containing AHLs. Tubes were grown at 28° C. for 12-16 h in a rotary shaking incubator (200 rpm).
The cultures were then assayed for β-galactosidase activity following the Miller assay method. Briefly, 100 μL aliquots of bacteria from each of the tubes were added to wells of a polystyrene 96-well plate and the OD600 of each well was recorded. Next, […] aliquots from each well were transferred to a solvent resistant 96-well plate containing 200 μL Z buffer, 8 μL CHCl3 and 4 μL, 0.1% aq. sodium dodecylsulfate (SDS). This suspension was mixed via repetitive pipetting, after which the CHCl3 was allowed to settle. A 100 μL aliquot from each well was transferred to a fresh polystyrene 96-well plate, and 20 μL of substrate, o-nitrophenyl-β-D-galactopyranoside (ONPG, […] in phosphate buffer), was added at time zero. After the development of appropriate yellow color (ca. 15-35 minutes), the reaction was terminated by the addition of 50 μL of 1 M Na2CO3. Absorbance at 420 nm and 550 nm was measured for each well using a plate reader, and Miller units were calculated according to standard methods.
Similar methods were used for antagonism assays, except the concentration of AHL analog used was 10^4 nM, and OOHL (8b) stock solution was added to each tube such that its concentration was 100 nM (FIG. 30). […] All assays were performed in triplicate.

Assay [2] concerns the target T1, TraR. The description is as above. Type of assay: cell-based. The conditions noted are these: for A. tumefaciens β-galactosidase activity [Miller units] 100 nM: antagonism, compound at 100 nM screened against 100 nM 8b, strain WCF47(pCF372).
A further assay addresses T2, LasR (Pseudomonas aeruginosa, UniProt P25084).
T2 construct: Both of these reporter strains lack their native AHL synthases, yet retain active LuxR-type receptors (LasR and TraR proteins, respectively); endogenous in cells; host or cells: P. aeruginosa PAO-JP2(plasI-LVAgfp)
Kind of assay: Pseudomonas aeruginosa reporter gene assay, PAO-JP2(plasI-LVAgfp), GFP fluorescence readout. Type of assay: cell-based. The following applies: for P. aeruginosa Relative fluorescence [%] 12.5 μM / P. aeruginosa Relative fluorescence [%] 400 μM: antagonism, relative to agonism by 8d at 1 μM set to 100%; for P. aeruginosa Relative fluorescence [%] 12.5 μM: compound at 12.5 μM screened against 1 μM 8d; for P. aeruginosa Relative fluorescence [%] 400 μM: compound at 400 μM screened against 1 μM 8d; for antagonism against LasR in P. aeruginosa: antagonism screen in presence of native ligand 8d; for activity relative to the three controls (7g, 8f, 9): at 400 μM.
From the text: as §1
An appropriate amount of concentrated stock solution, to give a final concentration of 1 μM, was added to a polypropylene 96-well plate, and the solvent was allowed to evaporate. An overnight culture of P. aeruginosa PAO-JP2(plasI-LVAgfp) was diluted to an OD600 of 0.1 in fresh LB medium containing 200 μg/mL carbenicillin. 200 μL of the diluted culture was added to each well of the plate and incubated at 37° C. for 6 h in a rotary shaking incubator (200 rpm). Cultures were transferred to a polystyrene 96-well plate, GFP expression was measured using a plate reader, and this value was normalized to cell density. Similar methods were used for antagonism assays, illustrated in FIG. […] All assays were performed in triplicate.

For assay [3], the system named is P. aeruginosa (PAO1(pLVAgfp)) biofilm formation. Kind of assay: Static biofilm assay, scanning laser confocal microscopy. Type of assay: cell-based, Pseudomonas aeruginosa. The conditions noted are these: 48 h; for P. aeruginosa biofilm formation: 50 μM ligand, glass slides; for dose dependence of biofilm disruption: 50, 25 and 12.5 μM. As for the experimental part:
Standard static biofilm assays were performed using a P. aeruginosa (PAO1(pLVAgfp)) strain that constitutively produces GFP to facilitate visualization. Biofilms were grown in the absence of ligand (FIG. 34A) and in the presence of 50 μM synthetic ligands 7h (FIG. 34B) or 7o (FIG. 34C), for 48 h and visualized using scanning laser confocal microscopy.
Standard static biofilm assays were performed using a P. aeruginosa PAO1(pTdK-GFP). In brief, an overnight culture was diluted to an OD600 of 0.1 in fresh M9 medium containing 200 μg/mL carbenicillin. This diluted culture was added to a tube containing 50 μM antagonist. Biofilms were grown in the absence of ligand, FIG. 35A; in the presence synthetic ligand 7h, FIG. 35B; and in the presence of synthetic ligand 7o, FIG. 35C (both at 50 μM) for 48 h and visualized using scanning laser confocal microscopy. A sterilized glass coverslip was added to each tube, and the culture was incubated at 37° C. for 48 h without shaking. Coverslips were removed, washed with phosphate buffered saline, and examined using scanning laser confocal microscopy methods. Top-down Z series were collected over a distance of ca. 100 μm. Images in FIGS. 35-37 are representative of several experiments performed on separate days.

T1 sequence (P33905 whole entry): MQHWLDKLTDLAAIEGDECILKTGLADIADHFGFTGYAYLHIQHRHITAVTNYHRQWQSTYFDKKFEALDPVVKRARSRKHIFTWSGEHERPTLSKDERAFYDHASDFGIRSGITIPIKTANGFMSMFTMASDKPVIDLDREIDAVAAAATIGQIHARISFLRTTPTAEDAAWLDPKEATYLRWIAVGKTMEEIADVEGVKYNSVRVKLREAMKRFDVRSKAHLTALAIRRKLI
T2 sequence (P25084 whole entry): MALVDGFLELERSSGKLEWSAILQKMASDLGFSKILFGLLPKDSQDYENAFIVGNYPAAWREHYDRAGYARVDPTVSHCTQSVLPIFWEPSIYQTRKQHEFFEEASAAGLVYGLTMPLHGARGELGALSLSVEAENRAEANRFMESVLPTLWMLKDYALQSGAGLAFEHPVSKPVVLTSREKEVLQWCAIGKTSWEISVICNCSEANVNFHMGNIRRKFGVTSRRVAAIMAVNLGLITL

Regarding `CCCCCCCCCC(=O)CC(=O)Nc1ccccc1O` [Compound 9, reference compound], on TraR [1], the IC50 worked out at 4.7 µM and the “A. tumefaciens β-galactosidase activity [Miller units] 10^4 nM” value is recorded as 186 ± 15 Miller units. The “A. tumefaciens β-galactosidase activity [Miller units] 100 nM” value at TraR [2] amounted to 396 ± 27 Miller units. Also, on LasR, the IC50 was determined as 37.3 µM, the “P. aeruginosa Relative fluorescence [%] 12.5 μM” value is 63 ± 8% and the “P. aeruginosa Relative fluorescence [%] 400 μM” value is recorded as 23 ± 7%.

As for `CCCCCCCCCC(=O)CC(=O)N[C@@H]1CCOC1=O` [Compound 8d, N-(3-oxo-dodecanoyl)-L-homoserine lactone, reference compound], the “P. aeruginosa Relative fluorescence [%], control relative agonism activity” value at LasR (Control: relative agonism activity at 1 μM 8d (not at 12.5 μM)) is reported as 100 ± 8^h %.

Take `O=C(Cc1ccc(Br)cc1)N[C@H]1CCOC1=O` [Compound 7o, N-(4-bromophenylacetanoyl)-L-homoserine lactone]: at TraR [1], the “activity against TraR in A. tumefaciens” value is listed as “significant activity”; the “A. tumefaciens β-galactosidase activity [Miller units] 10^4 nM” value is 0 ± 4 Miller units; the “activity relative to previously reported antagonists 7g, 8f and 9” value is on record as “one to two orders of magnitude more active”. Also, on TraR [1] (screened against 100 nM 8b, sigmoidal dose-response curve fit, read-out: A. tumefaciens IC50), the IC50 is 0.25 µM. Moreover, in assay [3], the “P. aeruginosa biofilm formation” value was “strongly inhibit” and the “dose dependence of biofilm disruption” value is “dose-dependent disruption”. For the same molecule, the “A. tumefaciens β-galactosidase activity [Miller units] 100 nM” value at TraR [2] worked out at 193 ± 9 Miller units. For the same molecule, at TraR [2] (read-out: inhibition (TraR antagonism)), the inhibition at 0.1 µM was 50%. On LasR, the “antagonism against LasR in P. aeruginosa” value is listed as “identified as antagonists”; the “P. aeruginosa Relative fluorescence [%] 12.5 μM” value is given as 58 ± 21%; the “P. aeruginosa Relative fluorescence [%] 400 μM” value came out at 14 ± 5%; the “activity relative to the three controls (7g, 8f, 9)” value is “twice as active”. Also, at LasR (screened against 1 μM 8d, sigmoidal dose-response curve fit, read-out: P. aeruginosa IC50), the 50% inhibitory concentration (IC50) was determined as 16.1 µM.

Turning to `O=C(CC1C=CCC1)N[C@H]1CCOC1=O` (stereo partly drawn) [Compound 7k, N-(2-cyclopentene-1-acetanoyl)-L-homoserine lactone], at TraR [1], the IC50 was 1 µM; the “activity against TraR in A. tumefaciens” value is listed as “significant activity”; the “A. tumefaciens β-galactosidase activity [Miller units] 10^4 nM” value is 19 ± 8 Miller units; the “activity relative to previously reported antagonists 7g, 8f and 9” value is recorded as “one to two orders of magnitude more active”. Further, the “A. tumefaciens β-galactosidase activity [Miller units] 100 nM” value at TraR [2] was found to be 306 ± 8 Miller units. At LasR, the midpoint of inhibition, the IC50, lay at 33.1 µM; the “antagonism against LasR in P. aeruginosa” value is “identified as antagonists”; the “P. aeruginosa Relative fluorescence [%] 12.5 μM” value worked out at 72 ± 8%; the “P. aeruginosa Relative fluorescence [%] 400 μM” value came out at 24 ± 7%.

For `O=C(CC(=O)N[C@H]1CCOC1=O)Cc1ccccc1` [Compound 8f, N-(3-oxo-4-phenylbutanoyl)-L-homoserine lactone, reference compound], on TraR [1], the IC50 stood at 0.59 µM and the “A. tumefaciens β-galactosidase activity [Miller units] 10^4 nM” value turned out to be 51 ± 22 Miller units. Besides, the “A. tumefaciens β-galactosidase activity [Miller units] 100 nM” value on TraR [2] worked out at 310 ± 6 Miller units. For the same molecule, at LasR, 53.6 µM corresponded to half-maximal inhibition (IC50), the “P. aeruginosa Relative fluorescence [%] 12.5 μM” value is listed as 82 ± 18% and the “P. aeruginosa Relative fluorescence [%] 400 μM” value turned out to be 27 ± 9%.

Take `CCCCCCC(=O)N[C@H]1CCOC1=O` [Compound 7g, N-heptanoyl-L-homoserine lactone, reference compound]: on TraR [1], the IC50 was determined as 0.13 µM and the “A. tumefaciens β-galactosidase activity [Miller units] 10^4 nM” value was found to be 34 ± 6 Miller units. In addition, the “A. tumefaciens β-galactosidase activity [Miller units] 100 nM” value at TraR [2] is 226 ± 30 Miller units. Further, on LasR, the IC50 was determined as 51.5 µM, the “P. aeruginosa Relative fluorescence [%] 12.5 μM” value came out at 78 ± 9% and the “P. aeruginosa Relative fluorescence [%] 400 μM” value is on record as 29 ± 9%.

With `O=C(CCCc1c[nH]c2ccccc12)N[C@@H]1CCOC1=O` [Compound 7h, N-(indole-3-butanoyl)-L-homoserine lactone], at TraR [1], it took 1.1 µM to reach half-maximal inhibition (IC50); the “activity against TraR in A. tumefaciens” value is on record as “significant activity”; the “A. tumefaciens β-galactosidase activity [Miller units] 10^4 nM” value came out at 150 ± 14 Miller units; the “activity relative to previously reported antagonists 7g, 8f and 9” value is “one to two orders of magnitude more active”. Besides, in assay [3], the “P. aeruginosa biofilm formation” value is “strongly inhibit” and the “dose dependence of biofilm disruption” value was “dose-dependent disruption”. In addition, at TraR [2], the “A. tumefaciens β-galactosidase activity [Miller units] 100 nM” value stood at 245 ± 14 Miller units. At LasR, it took 14.8 µM to reach half-maximal inhibition (IC50), the “antagonism against LasR in P. aeruginosa” value is “identified as antagonists”, the “P. aeruginosa Relative fluorescence [%] 12.5 μM” value is listed as 52 ± 8% and the “P. aeruginosa Relative fluorescence [%] 400 μM” value is given as 14 ± 4%. The “activity relative to the three controls (7g, 8f, 9)” value on LasR is on record as “twice as active”. In addition, the “inhibition (LasR antagonism)” value at LasR (at a 12.5:1 ratio with native ligand 8d) turned out to be 50%.

On to `CCCCCC(=O)CC(=O)N[C@@H]1CCOC1=O` [Compound 8b, N-(3-oxo-octanoyl)-L-homoserine lactone, reference compound], for which, at TraR [1] (Control: agonism activity at 100 nM 8b alone), the “A. tumefaciens β-galactosidase activity [Miller units], control agonism activity” value is 385 ± 35^g Miller units.
